From ChEMBL document CHEMBL3132769, “Fragment growing to retain or alter the selectivity of anchored kinase hinge-binding fragments” (Medchemcomm, 2014)

Assays:
[1] = biological target: Platelet-derived growth factor receptor alpha (Homo sapiens) (UniProt P16234); assay: Inhibition of human PDGFR alpha catalytic domain expressed in baculovirus assessed as substrate phosphorylation using fluorescence-labelled peptides as substrate at 0.2 uM after 90 mins by microfluidic peptide phosphorylation assay
[2] = biological target: T1, Serine/threonine-protein kinase BRSK1 (Homo sapiens) (UniProt Q8TDC3); assay: Inhibition of human full length BRSK1 expressed in baculovirus assessed as substrate phosphorylation using fluorescence-labelled peptides as substrate at 0.1 uM after 90 mins by microfluidic peptide phosphorylation assay
T1 sequence (whole entry): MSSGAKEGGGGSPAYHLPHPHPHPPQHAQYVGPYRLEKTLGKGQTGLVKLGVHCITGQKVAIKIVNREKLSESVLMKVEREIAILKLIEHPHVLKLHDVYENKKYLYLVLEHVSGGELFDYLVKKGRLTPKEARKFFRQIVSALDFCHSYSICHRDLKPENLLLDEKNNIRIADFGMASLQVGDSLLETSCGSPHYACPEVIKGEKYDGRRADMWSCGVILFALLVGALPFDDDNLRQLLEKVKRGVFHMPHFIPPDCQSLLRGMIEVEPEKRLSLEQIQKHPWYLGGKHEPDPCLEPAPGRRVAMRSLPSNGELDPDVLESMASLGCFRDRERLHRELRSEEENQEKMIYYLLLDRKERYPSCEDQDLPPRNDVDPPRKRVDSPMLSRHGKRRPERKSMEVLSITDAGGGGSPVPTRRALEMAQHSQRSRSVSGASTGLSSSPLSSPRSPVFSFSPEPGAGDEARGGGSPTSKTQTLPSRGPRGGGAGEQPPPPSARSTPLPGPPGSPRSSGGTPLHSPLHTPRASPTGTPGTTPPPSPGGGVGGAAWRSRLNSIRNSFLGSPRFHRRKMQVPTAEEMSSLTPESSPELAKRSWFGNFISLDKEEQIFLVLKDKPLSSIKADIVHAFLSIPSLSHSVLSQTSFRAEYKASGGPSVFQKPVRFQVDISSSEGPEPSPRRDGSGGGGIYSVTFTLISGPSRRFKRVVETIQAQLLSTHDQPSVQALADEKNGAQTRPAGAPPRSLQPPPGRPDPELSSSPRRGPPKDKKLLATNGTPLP

[3] = biological target: Tyrosine-protein kinase HCK (Homo sapiens) (UniProt P08631); assay: Inhibition of human HCK catalytic domain expressed in baculovirus assessed as substrate phosphorylation using fluorescence-labelled peptides as substrate at 95 uM after 90 mins by microfluidic peptide phosphorylation assay
[4] = biological target: T2, Serine/threonine-protein kinase BRSK2 (Homo sapiens) (UniProt Q8IWQ3); assay: Inhibition of human truncated BRSK2 expressed in baculovirus assessed as substrate phosphorylation using fluorescence-labelled peptides as substrate at 0.06 uM after 90 mins by microfluidic peptide phosphorylation assay
T2 sequence (whole entry): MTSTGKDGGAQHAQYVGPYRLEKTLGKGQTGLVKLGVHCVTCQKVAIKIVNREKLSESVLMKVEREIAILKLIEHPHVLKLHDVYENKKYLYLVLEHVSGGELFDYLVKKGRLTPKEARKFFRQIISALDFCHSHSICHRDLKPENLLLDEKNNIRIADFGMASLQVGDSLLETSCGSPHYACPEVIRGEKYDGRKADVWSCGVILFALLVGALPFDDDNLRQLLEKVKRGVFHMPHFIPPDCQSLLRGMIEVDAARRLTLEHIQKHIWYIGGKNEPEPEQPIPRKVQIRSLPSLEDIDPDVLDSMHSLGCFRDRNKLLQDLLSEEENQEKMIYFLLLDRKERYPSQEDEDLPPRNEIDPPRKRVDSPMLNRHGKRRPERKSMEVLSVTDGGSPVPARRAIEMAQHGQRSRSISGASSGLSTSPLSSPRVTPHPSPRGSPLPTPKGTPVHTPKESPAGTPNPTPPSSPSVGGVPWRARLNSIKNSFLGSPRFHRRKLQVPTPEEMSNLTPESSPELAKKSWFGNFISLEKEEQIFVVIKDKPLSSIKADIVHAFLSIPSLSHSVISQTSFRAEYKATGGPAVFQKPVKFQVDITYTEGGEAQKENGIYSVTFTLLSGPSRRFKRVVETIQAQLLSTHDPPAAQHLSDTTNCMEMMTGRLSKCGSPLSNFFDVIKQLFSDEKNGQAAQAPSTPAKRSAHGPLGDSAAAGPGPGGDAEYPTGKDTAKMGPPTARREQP

[5] = biological target: T3, cGMP-dependent protein kinase 1 (Homo sapiens) (UniProt Q13976); assay: Inhibition of human full length PKG-1beta expressed in baculovirus assessed as substrate phosphorylation using fluorescence-labelled peptides as substrate at 0.06 uM after 90 mins by microfluidic peptide phosphorylation assay
T3 sequence (whole entry): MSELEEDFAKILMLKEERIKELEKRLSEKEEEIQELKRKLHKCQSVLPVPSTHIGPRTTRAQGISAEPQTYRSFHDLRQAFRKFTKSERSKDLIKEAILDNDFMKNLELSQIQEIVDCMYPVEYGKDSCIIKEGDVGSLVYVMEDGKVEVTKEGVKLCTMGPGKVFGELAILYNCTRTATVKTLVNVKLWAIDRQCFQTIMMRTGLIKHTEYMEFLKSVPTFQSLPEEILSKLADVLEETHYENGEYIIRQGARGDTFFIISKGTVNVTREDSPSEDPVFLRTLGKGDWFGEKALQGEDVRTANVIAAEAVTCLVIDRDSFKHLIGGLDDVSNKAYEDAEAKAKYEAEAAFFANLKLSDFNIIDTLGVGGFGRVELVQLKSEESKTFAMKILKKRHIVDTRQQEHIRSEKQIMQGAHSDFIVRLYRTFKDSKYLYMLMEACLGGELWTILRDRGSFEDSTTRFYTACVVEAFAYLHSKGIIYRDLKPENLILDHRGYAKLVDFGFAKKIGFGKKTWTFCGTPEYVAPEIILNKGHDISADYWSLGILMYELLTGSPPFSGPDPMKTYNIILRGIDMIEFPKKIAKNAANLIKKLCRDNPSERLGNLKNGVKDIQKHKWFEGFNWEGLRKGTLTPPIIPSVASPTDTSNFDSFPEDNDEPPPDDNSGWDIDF

[6] = biological target: T3, cGMP-dependent protein kinase 1 (Homo sapiens); assay: Inhibition of human full length PKG-1beta expressed in baculovirus assessed as substrate phosphorylation using fluorescence-labelled peptides as substrate at 8 uM after 90 mins by microfluidic peptide phosphorylation assay
[7] = tested on: Fibroblast growth factor receptor 2 (Homo sapiens), P21802 [N549H]; assay: Inhibition of human FGFR2 N549H mutant catalytic domain expressed in baculovirus assessed as substrate phosphorylation using fluorescence-labelled peptides as substrate at 70 uM after 90 mins by microfluidic peptide phosphorylation assay
[8] = biological target: Casein kinase I isoform delta (Homo sapiens) (UniProt P48730); assay: Inhibition of human CK1D catalytic domain expressed in Escherichia coli cell assessed as substrate phosphorylation using fluorescence-labelled peptides as substrate at 70 uM after 90 mins by microfluidic peptide phosphorylation assay
Chain of Casein kinase I isoform delta (Homo sapiens) (P48730 whole entry, looked up, the tested form may be a part, canonical isoform): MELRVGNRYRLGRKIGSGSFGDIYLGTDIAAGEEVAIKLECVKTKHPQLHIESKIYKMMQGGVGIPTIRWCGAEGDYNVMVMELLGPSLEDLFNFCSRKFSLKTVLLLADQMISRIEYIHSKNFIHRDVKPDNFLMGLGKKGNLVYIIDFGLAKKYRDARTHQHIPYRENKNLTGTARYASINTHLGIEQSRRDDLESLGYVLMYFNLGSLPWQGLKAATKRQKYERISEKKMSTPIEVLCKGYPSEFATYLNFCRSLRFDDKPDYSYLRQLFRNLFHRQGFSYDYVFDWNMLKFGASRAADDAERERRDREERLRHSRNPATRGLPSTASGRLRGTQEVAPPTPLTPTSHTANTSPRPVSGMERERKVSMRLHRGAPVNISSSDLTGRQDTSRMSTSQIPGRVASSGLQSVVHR

Chain of Platelet-derived growth factor receptor alpha (Homo sapiens) (P16234 whole entry, the tested form may be a part): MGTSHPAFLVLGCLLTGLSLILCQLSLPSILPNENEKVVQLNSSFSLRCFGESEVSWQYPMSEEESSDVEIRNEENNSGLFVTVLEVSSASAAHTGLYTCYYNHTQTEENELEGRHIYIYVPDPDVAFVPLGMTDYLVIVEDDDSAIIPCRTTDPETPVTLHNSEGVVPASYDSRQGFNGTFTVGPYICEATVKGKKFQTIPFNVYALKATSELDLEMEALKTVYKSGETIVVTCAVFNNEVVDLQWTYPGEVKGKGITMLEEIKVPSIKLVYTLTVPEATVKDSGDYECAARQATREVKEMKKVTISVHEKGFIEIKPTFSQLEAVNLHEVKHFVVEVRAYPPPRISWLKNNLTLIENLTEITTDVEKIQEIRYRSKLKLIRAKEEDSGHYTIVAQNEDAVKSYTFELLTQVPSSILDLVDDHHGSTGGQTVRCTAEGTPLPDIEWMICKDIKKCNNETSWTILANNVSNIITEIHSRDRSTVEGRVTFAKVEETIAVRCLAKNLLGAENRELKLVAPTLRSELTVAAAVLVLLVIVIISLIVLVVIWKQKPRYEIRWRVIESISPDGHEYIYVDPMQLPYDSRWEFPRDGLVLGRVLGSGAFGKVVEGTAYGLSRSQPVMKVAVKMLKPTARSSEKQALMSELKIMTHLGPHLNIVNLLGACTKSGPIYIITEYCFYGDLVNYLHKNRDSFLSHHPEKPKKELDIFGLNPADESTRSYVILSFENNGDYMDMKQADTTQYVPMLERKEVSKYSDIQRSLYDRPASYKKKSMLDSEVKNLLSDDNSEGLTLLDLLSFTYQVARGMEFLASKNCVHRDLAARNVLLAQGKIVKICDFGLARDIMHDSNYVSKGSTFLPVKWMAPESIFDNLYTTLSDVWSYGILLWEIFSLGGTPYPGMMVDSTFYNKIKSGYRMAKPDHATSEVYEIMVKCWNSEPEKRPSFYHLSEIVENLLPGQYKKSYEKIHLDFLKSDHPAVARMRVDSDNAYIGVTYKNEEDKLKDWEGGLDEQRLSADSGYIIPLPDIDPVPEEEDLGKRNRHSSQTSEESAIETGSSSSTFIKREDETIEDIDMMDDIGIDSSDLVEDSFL
Chain of Fibroblast growth factor receptor 2 (Homo sapiens), P21802 [N549H] (P21802 whole entry N549H, the tested form may be a part, canonical isoform): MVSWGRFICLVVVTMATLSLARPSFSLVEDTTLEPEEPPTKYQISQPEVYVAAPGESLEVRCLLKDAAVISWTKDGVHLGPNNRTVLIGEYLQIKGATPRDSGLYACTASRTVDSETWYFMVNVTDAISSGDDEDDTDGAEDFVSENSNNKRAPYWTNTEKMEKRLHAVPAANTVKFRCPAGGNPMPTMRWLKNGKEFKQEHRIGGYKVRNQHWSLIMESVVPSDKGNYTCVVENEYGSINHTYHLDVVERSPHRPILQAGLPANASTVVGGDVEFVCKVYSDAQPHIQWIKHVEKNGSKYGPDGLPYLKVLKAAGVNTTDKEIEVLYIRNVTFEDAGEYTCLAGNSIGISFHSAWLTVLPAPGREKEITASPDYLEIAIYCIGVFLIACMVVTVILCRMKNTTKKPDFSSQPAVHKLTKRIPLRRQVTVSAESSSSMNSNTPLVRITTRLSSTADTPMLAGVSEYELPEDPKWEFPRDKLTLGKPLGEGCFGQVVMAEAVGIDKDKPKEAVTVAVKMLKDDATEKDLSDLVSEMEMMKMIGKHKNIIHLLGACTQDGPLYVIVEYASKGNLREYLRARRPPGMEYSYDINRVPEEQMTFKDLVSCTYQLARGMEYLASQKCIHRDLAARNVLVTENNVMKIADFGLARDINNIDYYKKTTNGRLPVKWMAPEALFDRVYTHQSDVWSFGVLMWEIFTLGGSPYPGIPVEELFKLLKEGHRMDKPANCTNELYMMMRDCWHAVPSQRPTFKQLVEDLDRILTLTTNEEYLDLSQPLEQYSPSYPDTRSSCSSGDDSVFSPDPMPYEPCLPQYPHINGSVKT
Chain of Tyrosine-protein kinase HCK (Homo sapiens) (P08631 2-526 limits assumed): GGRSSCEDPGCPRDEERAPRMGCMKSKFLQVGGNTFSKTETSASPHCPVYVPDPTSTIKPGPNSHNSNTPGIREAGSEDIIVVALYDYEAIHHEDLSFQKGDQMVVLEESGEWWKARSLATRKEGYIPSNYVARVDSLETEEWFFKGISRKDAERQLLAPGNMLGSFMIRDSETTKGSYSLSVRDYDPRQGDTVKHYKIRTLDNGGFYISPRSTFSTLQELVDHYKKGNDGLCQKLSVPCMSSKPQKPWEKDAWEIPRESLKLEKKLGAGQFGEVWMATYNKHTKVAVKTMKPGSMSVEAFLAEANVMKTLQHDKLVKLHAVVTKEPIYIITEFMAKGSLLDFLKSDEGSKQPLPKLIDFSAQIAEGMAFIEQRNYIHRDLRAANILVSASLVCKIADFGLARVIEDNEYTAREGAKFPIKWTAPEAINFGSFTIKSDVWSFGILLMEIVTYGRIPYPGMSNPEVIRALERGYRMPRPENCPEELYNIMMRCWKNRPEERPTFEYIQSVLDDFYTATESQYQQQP

For `Clc1ccc(C2(c3ccc(-c4ncnc5[nH]cnc45)cc3)CCNCC2)cc1`, the inhibition [1] was 0.5%.
`C[C@H](CN(C)C)Oc1nc(Nc2cc3cccc(Cl)c3cn2)cnc1C#N` gave an inhibition [2] of 16.5%.
`NCCc1ccc(-c2ncnc3[nH]cnc23)cc1` gave an inhibition [3] of 48.5%.
Work on `NC1(Cc2ccc(Cl)cc2)CCN(c2ncnc3[nH]ccc23)CC1` yielded an inhibition [4] of 0% and an inhibition [5] of 0%.
Work on `NCC1CCN(c2ncnc3[nH]ccc23)CC1` yielded an inhibition [6] of 76.5%.
For `CNCc1ccc(-c2ncnc3[nH]cnc23)cc1`, the inhibition [7] was 35.5% and the inhibition [8] was 46%.
